The target of the experiment is T1, Juvenile hormone epoxide hydrolase (Manduca sexta, UniProt Q25489).
T1 sequence (Q25489 whole entry): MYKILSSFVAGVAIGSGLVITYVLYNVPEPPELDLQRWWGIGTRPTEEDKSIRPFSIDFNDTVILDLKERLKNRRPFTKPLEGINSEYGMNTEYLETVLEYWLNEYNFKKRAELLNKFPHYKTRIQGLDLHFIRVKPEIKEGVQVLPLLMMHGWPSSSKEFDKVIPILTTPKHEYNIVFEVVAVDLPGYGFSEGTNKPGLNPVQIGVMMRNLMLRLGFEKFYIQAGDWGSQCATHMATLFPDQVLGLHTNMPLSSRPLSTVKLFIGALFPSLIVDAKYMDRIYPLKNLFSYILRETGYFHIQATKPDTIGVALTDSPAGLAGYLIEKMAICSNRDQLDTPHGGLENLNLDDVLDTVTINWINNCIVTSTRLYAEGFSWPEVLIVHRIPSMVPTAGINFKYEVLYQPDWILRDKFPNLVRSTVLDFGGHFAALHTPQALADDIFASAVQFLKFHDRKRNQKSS
The experiment can be described thus: Quantitative Reverse Transcriptase Assay. The source says: We used quantitative reverse-transcriptase PCR to measure the RNA levels of certain AMP genes (lysozyme, gallerimycin, moricin and cecropin) in caterpillars of M. sexta and the greater waxmoth G. mellonella challenged with Serratia entomophila or Salmonella enterica, respectively, following injection of different urea lipid compounds.

What is called IC50 is the midpoint of a concentration-inhibition curve. A low value points to greater potency in that assay. The molecule `CC(C)CCCCCCCCNC(N)=O` [N-(9-Methyldecyl) urea (2)] gave an IC50 of more than 100 µM. The value for `CC(C)CCCCCCCCCCNC(N)=O` [N-(11-Methyldodecyl) urea (5)] was more than 100 µM. As for `CCCCCCCCCCCCNC(N)=O` [N-Dodecyl urea (6)], the IC50 is more than 100 µM. The result for `CNC(=O)NCCCCCCCCC(C)C` [N-Methyl-N -(9-methyldecyl) urea (1)] reads 6.5 µM; that for `CNC(=O)NCCCCCCCCCCC(C)C` [N-Methyl-N -(11-methyldodecyl) urea (3)], 30 µM. The result for `CCCCCCCCCCCCNC(=O)NC` [N-Methyl-N -dodecyl urea (4)] reads 10.7 µM; that for `CCCCCCCCCNC(=O)NC` [N-Methyl-N -nonyl urea (11)], more than 100 µM.

As for `CCCCCCCCCCCCCNC(=O)NC` [N-Methyl-N -tridecyl urea (9)], half-maximal inhibition (IC50) required 10 µM. In turn, `CCCCCCCCCCCCCNC(N)=O` [N-Tridecyl urea (10)] had an IC50 of more than 100 µM. Turning to `CCCCCCCCCCCNC(=O)NC` [N-methyl-N -undecyl urea (7)], the IC50 turned out to be 4.3 µM. Consider `CCCCCCCCCNC(N)=O` [N-nonyl urea (12)], for which the IC50 was more than 100 µM. The result for `CCCCCCCCCCCCNC(=O)NCC(C)C` [US8815951, 478] reads 2.3 µM.

These data come from BindingDB's records for doi:10.1002/cbic.201402650 (Goethe Universität Frankfurt, 2015).
